Reference: patent publication US20070128217A1 (priority 2003, published 2007)

How the values were obtained:
[1] = test system: control sera (pooled serum of ten healthy LUMC hospital workers; commercial negative donor pooled serum from the Dutch bloodbank); type: binding, human; design: Binding of Control serum LUMC to linear peptides / Binding of Control serum Blood-bank to linear peptides / Binding of Control serum LUMC to looped peptides / Binding of Control Serum Blood-Bank to Looped peptides / Binding of Control serum LUMC to linear peptides of the protein M of SARS-CoV Urbani / Binding of Control serum Blood-bank to linear peptides of the protein M of SARS-CoV Urbani / Binding of Control serum LUMC to looped peptides of the protein M of SARS-CoV Urbani / Binding of Control Serum Blood-Bank to Looped peptides of the protein M of SARS-CoV Urbani: unit not given here
[2] = test system: rabbit serum obtained by immunizing a rabbit with the SARS-CoV strain Frankfurt 1; type: binding; design: Binding of a rabbit serum to linear peptides / Binding of a rabbit serum to looped peptides / Rabbit serum linear peptides / Rabbit serum looped peptides / Binding of a rabbit serum to linear peptides of protein N of SARS-CoV Urbani (Rabbit serum linear peptides) / Binding of a rabbit serum to looped/cyclic peptides of protein N of SARS-CoV Urbani (Rabbit serum looped peptides): unit not given here
[3] = test system: antibodies in sera from SARS patients (sera 1a, 1b, 2, 6, 37, 62, London, SARS-yellow, SARS-green); type: binding, human; design: Binding of serum 6 to linear peptides of protein X1 of SARS-CoV Urbani / Binding of serum 37 to linear peptides of protein X1 of SARS-CoV Urbani / Binding of serum 6 to looped/cyclic peptide (PEPSCAN-ELISA) / Binding of serum 37 to looped/cyclic peptide (PEPSCAN-ELISA) / Binding of serum 37 to looped/cyclic peptides of protein X1 of SARS-CoV Urbani / Binding of serum 6 to linear peptides of protein X2 / Binding of serum 37 to linear peptides of protein X2 / Binding of serum 37 to looped/cyclic peptides of protein X2 of SARS-CoV Urbani / Binding of serum 6 to linear peptides of protein M of SARS-CoV Urbani / Binding of serum 37 to linear peptides of protein M of SARS-CoV Urbani / Binding of serum 6 to looped/cyclic peptides of protein M of SARS-CoV Urbani / Binding of serum 37 to looped/cyclic peptides of protein M of SARS-CoV Urbani / Binding of serum 6 to linear peptides of protein X3 of SARS-CoV Urbani / Binding of serum 37 to linear peptides of protein X3 of SARS-CoV Urbani / Binding of serum 37 to looped/cyclic peptides of protein X3 of SARS-CoV Urbani / Binding of serum 6 to linear peptides of protein X4 of SARS-CoV Urbani / Binding of serum 37 to linear peptides of protein X4 of SARS-CoV Urbani / Binding of serum 37 to looped/cyclic peptides of protein X4 of SARS-CoV Urbani / Binding of serum 6 to linear peptides of protein X5 of SARS-CoV Urbani / Binding of serum 37 to linear peptides of protein X5 of SARS-CoV Urbani / Binding of serum 37 to looped/cyclic peptides of protein X5 of SARS-CoV Urbani / Binding of serum 6 to linear peptides of protein N of SARS-CoV Urbani / Binding of serum 37 to linear peptides of protein N of SARS-CoV Urbani / Binding of serum 6 to linear peptide (PEPSCAN-ELISA) / Binding of serum 1a to looped/cyclic peptides of protein N of SARS-CoV Urbani / Binding of serum 1b to looped/cyclic peptides of protein N of SARS-CoV Urbani / Binding of serum 2 to looped/cyclic peptides of protein N of SARS-CoV Urbani / Binding of serum 6 to looped/cyclic peptides of protein N of SARS-CoV Urbani / Binding of serum 37 to looped/cyclic peptides of protein N of SARS-CoV Urbani / Binding of serum 62 to looped/cyclic peptides of protein N of SARS-CoV Urbani / Binding of serum London to looped/cyclic peptides of protein N of SARS-CoV Urbani / Binding of serum SARS-green to looped/cyclic peptides of protein N of SARS-CoV Urbani: unit not given here

VLPFHRWHTMVQTCT
Binding of Control Serum Blood-Bank to Looped peptides [1]: 0.6 | Binding of Control serum Blood-bank to linear peptides [1]: 0.6 | Binding of Control serum LUMC to linear peptides [1]: 0.5 | Binding of Control serum LUMC to looped peptides [1]: 0.0 | Rabbit serum linear peptides [2]: 0.6 | Rabbit serum looped peptides [2]: 0.0 | Binding of serum 1a to linear peptides of protein X5 of SARS-CoV Urbani [3]: 0.8 | Binding of serum 1a to looped/cyclic peptides of protein X5 of SARS-CoV Urbani [3]: 0.7 | Binding of serum 1b to linear peptides of protein X5 of SARS-CoV Urbani [3]: 0.6 | Binding of serum 1b to looped/cyclic peptides of protein X5 of SARS-CoV Urbani [3]: 0.5 | Binding of serum 2 to linear peptides of protein X5 of SARS-CoV Urbani [3]: 0.7 | Binding of serum 2 to looped/cyclic peptides of protein X5 of SARS-CoV Urbani [3]: 0.7 | Binding of serum 6 to linear peptides of protein X5 of SARS-CoV Urbani [3]: 0.5 | Binding of serum 6 to looped/cyclic peptides of protein X5 of SARS-CoV Urbani [3]: 0.4 | Binding of serum 37 to linear peptides of protein X5 of SARS-CoV Urbani [3]: 0.7 | Binding of serum 37 to looped/cyclic peptides of protein X5 of SARS-CoV Urbani [3]: 0.5 | Binding of serum 62 to linear peptides of protein X5 of SARS-CoV Urbani [3]: 0.7 | Binding of serum 62 to looped/cyclic peptides of protein X5 of SARS-CoV Urbani [3]: 0.3 | Binding of serum London to linear peptides of protein X5 of SARS-CoV Urbani [3]: 0.8 | Binding of serum London to looped/cyclic peptides of protein X5 of SARS-CoV Urbani [3]: 0.2 | Binding of serum SARS-green to linear peptides of protein X5 of SARS-CoV Urbani [3]: 0.6 | Binding of serum SARS-green to looped/cyclic peptides of protein X5 of SARS-CoV Urbani [3]: 1.4 | Binding of serum SARS-yellow to linear peptides of protein X5 of SARS-CoV Urbani [3]: 0.4 | Binding of serum SARS-yellow to looped/cyclic peptides of protein X5 of SARS-CoV Urbani [3]: 0.3

VPLRGTIVTRPLMES
Binding of Control Serum Blood-Bank to Looped peptides of the protein M of SARS-CoV Urbani [1]: 0.6 | Binding of Control serum Blood-bank to linear peptides of the protein M of SARS-CoV Urbani [1]: 0.9 | Binding of Control serum LUMC to linear peptides of the protein M of SARS-CoV Urbani [1]: 0.6 | Binding of Control serum LUMC to looped peptides of the protein M of SARS-CoV Urbani [1]: 0.7 | Rabbit serum linear peptides [2]: 0.1 | Rabbit serum looped peptides [2]: 0.6 | Binding of serum 1a to linear peptides of protein M of SARS-CoV Urbani [3]: 0.7 | Binding of serum 1b to linear peptides of protein M of SARS-CoV Urbani [3]: 0.6 | Binding of serum 2 to linear peptides of protein M of SARS-CoV Urbani [3]: 0.7 | Binding of serum 6 to linear peptides of protein M of SARS-CoV Urbani [3]: 0.4 | Binding of serum 37 to linear peptides of protein M of SARS-CoV Urbani [3]: 0.6 | Binding of serum 62 to linear peptides of protein M of SARS-CoV Urbani [3]: 0.5 | Binding of serum London to linear peptides of protein M of SARS-CoV Urbani [3]: 0.4 | Binding of serum SARS-green to linear peptides of protein M of SARS-CoV Urbani [3]: 0.5 | Binding of serum SARS-yellow to linear peptides of protein M of SARS-CoV Urbani [3]: 0.4 | Recognition of the peptide by sera of SARS-CoV infected individuals, and form (linear, looped/cyclic) in which it is recognized [3]: recognized in looped/cyclic form

VQIHTIDGSSGVANP
Binding of Control Serum Blood-Bank to Looped peptides [1]: 0.3 | Binding of Control serum Blood-bank to linear peptides [1]: 0.5 | Binding of Control serum LUMC to linear peptides [1]: 0.5 | Binding of Control serum LUMC to looped peptides [1]: 0.4 | Binding of a rabbit serum to linear peptides [2]: 0.1 | Binding of a rabbit serum to looped peptides [2]: 0.4 | Binding of serum 1a to linear peptides of protein X1 of SARS-CoV Urbani [3]: 0.7 | Binding of serum 1a to looped/cyclic peptides of protein X1 of SARS-CoV Urbani [3]: 0.4 | Binding of serum 1b to linear peptides of protein X1 of SARS-CoV Urbani [3]: 0.5 | Binding of serum 1b to looped/cyclic peptides of protein X1 of SARS-CoV Urbani [3]: 0.4 | Binding of serum 2 to linear peptides of protein X1 of SARS-CoV Urbani [3]: 0.6 | Binding of serum 2 to looped/cyclic peptides of protein X1 of SARS-CoV Urbani [3]: 0.3 | Binding of serum 6 to linear peptides of protein X1 of SARS-CoV Urbani [3]: 0.6 | Binding of serum 6 to looped/cyclic peptides of protein X1 of SARS-CoV Urbani [3]: 0.3 | Binding of serum 37 to linear peptides of protein X1 of SARS-CoV Urbani [3]: 0.7 | Binding of serum 37 to looped/cyclic peptides of protein X1 of SARS-CoV Urbani [3]: 0.4 | Binding of serum 62 to linear peptides of protein X1 of SARS-CoV Urbani [3]: 0.6 | Binding of serum 62 to looped/cyclic peptides of protein X1 of SARS-CoV Urbani [3]: 0.5 | Binding of serum London to linear peptides of protein X1 of SARS-CoV Urbani [3]: 0.3 | Binding of serum London to looped/cyclic peptides of protein X1 of SARS-CoV Urbani [3]: 0.2 | Binding of serum SARS-green to linear peptides of protein X1 of SARS-CoV Urbani [3]: 0.2 | Binding of serum SARS-green to looped/cyclic peptides of protein X1 of SARS-CoV Urbani [3]: 0.3 | Binding of serum SARS-yellow to linear peptides of protein X1 of SARS-CoV Urbani [3]: 0.4 | Binding of serum SARS-yellow to looped/cyclic peptides of protein X1 of SARS-CoV Urbani [3]: 0.1
